Assay results reported in PMC3887211, “Automethylation Activities within the Mixed Lineage Leukemia-1 (MLL1) Core Complex Reveal Evidence Supporting a “Two-active Site” Model for Multiple Histone H3 Lysine 4 Methylation” (The Journal of Biological Chemistry, 2013).

Legend:
[1] = molecular target: T1, MLL1 SET domain (MLL^3745) (Homo sapiens, UniProt Q03164); experiment: [3H]methyl transfer to H3 peptide, streptavidin pull-down, liquid scintillation counting; type: biochemical; conditions: histone H3 peptide (1-20)-GGK-biotin 500 μM fixed; 7 μM MLL1; 0-100 μM labelled compound; assay buffer pH 8.5, 15 °C; construct of MLL1 not stated for this assay; read-out: apparent Km
T1 construct: gene KMT2A; C-terminal Win motif + SET domain, residues 3745-3969, 26 kDa, expressed in E. coli as GST fusion

MBP-Trithorax SET domain = molecular target: T2, MBP-Trithorax SET domain (Drosophila melanogaster, UniProt P20659); experiment: [3H]methyl transfer (automethylation and H3 methylation), SDS-PAGE fluorography; type: biochemical; conditions: labelled compound; with or without histone H3 peptide (1-20); pH 8.5, 15 °C
T2 construct: gene trx; SET domain as MBP fusion from E. coli
T2 sequence (P20659 3588-3726 limits assumed): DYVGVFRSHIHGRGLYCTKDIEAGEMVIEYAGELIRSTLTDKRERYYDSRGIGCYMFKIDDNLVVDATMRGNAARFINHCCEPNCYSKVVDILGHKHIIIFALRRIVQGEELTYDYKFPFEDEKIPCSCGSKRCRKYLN

WRAD = molecular target: T3, WRAD (Homo sapiens, UniProt Q15291+Q9UBL3); conditions: labelled compound, no MLL1
T3 construct: gene ASH2L

[2] = molecular target: T4, MLL1 core complex (MWRAD) (Homo sapiens, UniProt Q03164); conditions: labelled compound; no histone H3; pH 8.5, 15 °C; intra-complex methylation of Ash2L by MLL1 SET domain
T4 construct: gene KMT2A
T4 sequence (Q9C005 whole entry, the tested form may be a part): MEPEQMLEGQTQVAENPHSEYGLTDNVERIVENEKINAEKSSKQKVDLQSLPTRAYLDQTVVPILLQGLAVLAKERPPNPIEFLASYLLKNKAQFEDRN
T4 sequence (Q9UBL3 whole entry, further chain, the tested form may be a part): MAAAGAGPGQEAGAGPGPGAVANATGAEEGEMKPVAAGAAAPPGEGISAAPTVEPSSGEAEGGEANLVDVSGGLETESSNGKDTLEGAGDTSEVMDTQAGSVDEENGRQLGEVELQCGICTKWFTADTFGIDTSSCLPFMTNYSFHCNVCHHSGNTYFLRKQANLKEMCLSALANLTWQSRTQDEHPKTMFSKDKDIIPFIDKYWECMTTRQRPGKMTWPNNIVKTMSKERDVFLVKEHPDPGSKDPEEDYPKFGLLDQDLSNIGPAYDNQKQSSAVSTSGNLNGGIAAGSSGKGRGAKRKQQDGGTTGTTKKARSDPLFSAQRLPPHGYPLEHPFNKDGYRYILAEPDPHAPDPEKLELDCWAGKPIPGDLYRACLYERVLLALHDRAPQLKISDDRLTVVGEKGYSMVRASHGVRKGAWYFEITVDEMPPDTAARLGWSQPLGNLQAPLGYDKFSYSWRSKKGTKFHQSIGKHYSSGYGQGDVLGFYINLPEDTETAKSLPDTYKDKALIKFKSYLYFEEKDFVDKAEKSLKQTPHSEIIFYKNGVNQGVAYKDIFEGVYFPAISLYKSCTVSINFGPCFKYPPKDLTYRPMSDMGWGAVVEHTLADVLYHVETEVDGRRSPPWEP
T4 sequence (Q03164 3745-3969): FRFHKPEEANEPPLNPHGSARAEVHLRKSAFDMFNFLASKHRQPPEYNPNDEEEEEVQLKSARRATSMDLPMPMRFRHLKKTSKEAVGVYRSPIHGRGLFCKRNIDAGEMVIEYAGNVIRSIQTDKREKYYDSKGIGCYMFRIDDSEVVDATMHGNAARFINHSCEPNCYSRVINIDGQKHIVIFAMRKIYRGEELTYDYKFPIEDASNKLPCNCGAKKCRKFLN
T4 sequence (Q15291 whole entry, further chain, the tested form may be a part): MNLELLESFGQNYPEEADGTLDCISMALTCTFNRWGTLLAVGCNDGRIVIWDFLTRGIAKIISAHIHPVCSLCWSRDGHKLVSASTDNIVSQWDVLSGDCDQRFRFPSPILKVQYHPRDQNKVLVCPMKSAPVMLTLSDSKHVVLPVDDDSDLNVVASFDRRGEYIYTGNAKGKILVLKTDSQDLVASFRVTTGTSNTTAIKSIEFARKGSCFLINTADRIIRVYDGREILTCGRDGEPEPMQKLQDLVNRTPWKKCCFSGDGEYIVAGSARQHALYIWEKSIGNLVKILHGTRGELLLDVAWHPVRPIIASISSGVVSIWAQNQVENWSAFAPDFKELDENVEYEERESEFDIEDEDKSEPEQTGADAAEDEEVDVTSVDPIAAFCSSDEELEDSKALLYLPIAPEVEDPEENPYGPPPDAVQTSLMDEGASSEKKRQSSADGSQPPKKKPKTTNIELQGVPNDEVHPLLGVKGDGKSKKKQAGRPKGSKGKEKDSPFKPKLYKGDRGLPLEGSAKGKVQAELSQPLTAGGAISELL

T3 sequence (Q9C005 whole entry): as the sequence (Q9C005 whole entry, the tested form may be a part) above
T3 sequence (Q15291 whole entry): as the sequence (Q15291 whole entry, further chain, the tested form may be a part) above
T3 sequence (Q9UBL3 whole entry): as the sequence (Q9UBL3 whole entry, further chain, the tested form may be a part) above
T1 sequence (Q03164 3745-3969): as the sequence (Q03164 3745-3969) above

SMILES: C[S+](CC[C@H](N)C(=O)O)C[C@H]1O[C@@H](n2cnc3c(N)ncnc32)[C@H](O)[C@@H]1O (stereo partly shown) [AdoMet]
- Km [1]: 10.4 ± 3.1 µM
- [3H]methyl transfer (automethylation and H3 methylation), SDS-PAGE fluorography (MBP-Trithorax SET domain): MBP-Trithorax SET domain is enzymatically active and undergoes automethylation in the absence of histone H3
- [3H]methyl transfer to histone H3 peptide, SDS-PAGE fluorography (WRAD): despite significant histone H3 methylation by WRAD, no Ash2L methylation was observed
- [3H]methyl transfer to Ash2L, SDS-PAGE fluorography [2]: Ash2L methylation is dependent on the catalytic activity of the MLL1 SET domain
